Assay results published in patent publication US12029716B2, “Derivatives of korormicin useful as antibiotics” (Viotika Life Sciences Inc., priority 2015, dated 2024).
pIC50: −log10 of the molar value. ≈ marks a conversion by molar mass, not a printed value. Entries after “also recorded” stand apart in the source; their conditions may differ. Where two headings read alike, the source gives them in different places.

Key:
[1] = tested on: primary Vascular Smooth Muscle cells; test: Cell toxicity / proliferation assay, primary vascular smooth muscle cells; format: cell-based, human
Protocol: (§1) Cell Toxicity Assay was performed as follows. HeLa, HEK293 and primary VSM cells were seeded at 5×10^3 cells/well in 96-well plates and incubated with Korormicin, PEG-2 or homoserine lactones in DMEM containing 1% fetal bovine serum (FBS; Invitrogen Corp.). After 48 hours, the number of living cells was determined by a colorimetric enzyme assay, based on a cytoplasmic enzyme activity present in viable cells.
Cells were seeded at 5×10^3 cells/well in 96-well plates and incubated with C. trachomatis in DMEM containing 1% fetal bovine serum (FBS; Invitrogen Corp.). After 48 hours, the number of living cells was determined by a colorimetric enzyme assay (CellTiter 96 Cell Proliferation Assay; Promega Corporation, Madison, WI) based on a cytoplasmic enzyme activity present in viable cells. (Cory et al. Use of an aqueous soluble tetrazolium/formazan assay for cell growth assays in culture. Cancer Commun. 1991; 3:207-212). The absorbance of a formazan product in tissue culture media was measured at 500 nm using a microplate reader.

HeLa cell line = test: Cell toxicity assay, HeLa cells; format: cell-based, human; settings: HeLa, concentrations of up to 50 μM
Protocol: as §1

HEK293 cells = test: Cell toxicity assay, HEK293 cells; format: cell-based, human; settings: HEK293, concentrations of up to 50 μM
Protocol: as §1

Chlamydia trachomatis = test: C. trachomatis infection of HeLa cells (chlamydial inclusions, immunocytochemistry); format: cell-based; settings: for MCC2, Minimal Chlamydicidal Concentration: after 2 passages with treatment
Protocol: Chlamydia trachomatis (C. trachomatis) propagation and treatment were carried out as follows. C. trachomatis was propagated in HeLa cells. The titer of C. trachomatis was determined in cyclohexamide-treated HeLa cells, and concentrations used were expressed as inclusion forming units (IFU) per mL.
Assessment of the level of infection was determined as follows. HeLa cells were seeded on glass coverslips in 24-well plates at 3×10^4 cells/well and inoculated with C. trachomatis and then treated with antibiotic (or other compounds of interest). After 48 hours, the infected cells were fixed with 100% methanol and then incubated with anti-Chlamydia monoclonal antibody. Inclusion bodies were visualized by staining with FITC-conjugated secondary antibody and DAPI as counterstaining. The samples were examined by a fluorescence microscopy. Number of inclusions was calculated per 100 cells.
Assessment of antichlamydial activity of Korormicin (Scheme shown in FIG. 1) and PEG-2 (Scheme shown in FIG. 2) were performed as follows. Cells were infected with C. trachomatis and treated with different concentrations of antibiotic of choice. After 48 h of C. trachomatis was collected (P1) and used to infect fresh cells. Subsequent collections of C. trachomatis were used to obtain P2, P3, P4 and P5 stocks of C. trachomatis. Dilution of C. trachomatis used to infect cells after treatment with PEG-2 had to be minimized in order to visualize inclusions. Last passage collection of C. trachomatis (P5) of Korormicin treatment and all collected of passages of C. trachomatis treated with PEG-2 were used to establish infectivity of treated Chlamydia (Scheme shown in FIG. 3).
For MIC50 (Minimal Concentration of the antibiotic that inhibits formation of chlamydial inclusions on 50%) determination HeLa cells were grown in 24-well or 96 well plates overnight prior to chlamydial inoculation. Elementary bodies were applied to the cells in small volume of SPG (0.22 M sucrose, 8.6 mM Na2HPO4, 3.8 mM KH2PO4, 5 mM glutamic acid, 0.2 μm-filtered, pH 7.4) and after 2 hours of incubation unattached elementary bodies were removed and infected cells were treated with different concentration of antibiotics in Dulbecco's modified Eagle's medium (DMEM, Invitrogen) with 5% fetal bovine serum (FBS, Invitrogen) in the presence of cycloheximide (1.0 μg/ml). After 42 h inclusions were visualized by immunocytochemistry.
To determent chlamydicidal effect of Korormicin (Scheme 1) and PEG-2 (Scheme 2) Hela cells were infected with C. trachomatis and treated with different concentrations of antibiotics. After 48 h of C. trachomatis was collected (P1) and used to infect fresh cells. Subsequent collections of C. trachomatis were used to obtain P2, P3, P4 and P5 stocks of C. trachomatis. Dilution of C. trachomatis used to infect cells after treatment with PEG-2 had to be minimized in order to visualize inclusions. (See Scheme 2 below). Last passage collection of C. trachomatis (P5) of Korormicin treatment and all collected of passages of C. trachomatis treated with PEG-2 were used to establish infectivity of treated C. trachomatis. Minimal chlamydicidal concentration (MCC2) for Korormicin, PEG-2 and PEG-2S was calculated after 2 passages of infection with treatment and reflect inhibition of infection for more than 90%. In all experiments inclusions were visualized by immunocytochemistry.
Cells were seeded on glass coverslips in 24-well plates (2-4×10^4 cells/well) or on glass-bottom 96 well plates (10^4 cells/well), and after overnight inoculated with C. trachomatis. After 42 hours, the infected cells were fixed with 90% acetone (or 100% methanol in case of 96 well plates) and then incubated with anti-Chlamydia antibody (Thermo Fisher Scientific). Alexa Fluor 488-conjugated anti-rabbit IgG (Molecular Probes) was used as secondary antibody. DAPI staining solution (300 nM) was added to the coverslips to identify nuclei. […]

[2] = tested on: HeLa cells infected with C. trachomatis; test: Intracellular acidification of HeLa cells infected with C. trachomatis; format: cell-based, human
Excerpt: The mechanism of action of PEG-2 was also investigated by monitoring intracellular acidification of infected cells treated with PEG-2. If PEG-2 is working through the inhibition of Na^+-NQR and a sodium motive force, then it would be expected to have an effect on intracellular Na^+ and H^+ concentrations within infected cells. HeLa cells were infected with C. trachomatis and intracellular acidification was monitored with fluorescent indicator dyes.

CCCCCCC/C=C/C=C\[C@H](O)CC(=O)NC1=C[C@](C)(CC)OC1=O [PEG-2]
toxicity to primary cells (in words) ([1]; primary Vascular Smooth Muscle cells): low cytotoxicity; also recorded: non-toxic | toxic effects ([1]; primary Vascular Smooth Muscle cells, concentrations of up to 50 μM): no toxic effects | toxic effects on primary cell cultures (VSMC) ([1]; up to 20 μM): no toxic effects | toxic effects (HeLa cell line): no toxic effects | toxic effects (HEK293 cells): no toxic effects | efficacy against C. trachomatis infection (in words) (Chlamydia trachomatis): effective | decrease of infectivity (number of chlamydial inclusions in the next passage) (Chlamydia trachomatis; 1st treatment, 15 μM): ~5 fold | number of inclusions, of control (Chlamydia trachomatis; 5 consecutive treatments, 15 μM): 0.01% | MCC2, Minimal Chlamydicidal Concentration (Chlamydia trachomatis): 5.45 µg/mL | MCC2, Minimal Chlamydicidal Concentration (Chlamydia trachomatis; inhibition of infection for more than 90%): 15 µM | number of detectable inclusions lower (Chlamydia trachomatis; after 5 consecutive treatments, 15 μM): 10,000 times | MIC501, Minimal Inhibitory Concentration after the treatment (Chlamydia trachomatis; first treatment): 3.63 µg/mL (≈ 9.99 µM) | size of chlamydial inclusions (Chlamydia trachomatis; fluorescence microscopy): noticeably smaller | pIC50 (Chlamydia trachomatis; read-out: MIC501, Minimal Inhibitory Concentration after the treatment, first treatment, 50% inhibition of inclusion formation): 5.00 | pIC50 (Chlamydia trachomatis; read-out: MIC502, Minimal Inhibitory Concentration after the second treatment, second treatment): 5.40 | MIC502, Minimal Inhibitory Concentration after the second treatment (Chlamydia trachomatis; second treatment): 1.45 µg/mL (≈ 3.99 µM) | delay of the initial C. trachomatis-induced acidification [2]: at least 2 hours | effect on the following acidification [2]: diminishes the following acidification
